# Reference: article PMC11329750 (Clinical and Translational Science, 2024)
# Legend:
# [1] = 900 mg SJW of another brand; absence of autoinduction; cited from earlier work
# [2] = tested on: CYP3A; assay: Oral midazolam microdose; type: in vivo, human; details: for F GMR: GMR (90% CI); for bioavailability: F (absolute bioavailability)
# [3] = tested on: CYP3A; assay: Intravenous midazolam microdose; type: in vivo, human
# [4] = tested on: CYP3A; details: 900 mg SJW daily, same brand; cited from earlier work
# [5] = tested on: CYP3A; assay: Limited-sampling strategy; details: human, in vivo, po, 30 ug
# [6] = cited from earlier work
# [7] = SJW 1800 + rifampin 600 for 7 days vs SJW 1800
smiles,measurement,setting,value
NC(=O)N1c2ccccc2C=Cc2ccccc21 [carbamazepine],reduction of exposure to single carbamazepine doses,[1],21%
Cc1ncc2n1-c1ccc(Cl)cc1C(c1ccccc1F)=NC2 [midazolam],F GMR,"[2]; 30 μg midazolam orally, SJW 1800 + rifampin 600 vs baseline",0.2070 (0.1704–0.2516)
same,F GMR,"[2]; 30 μg midazolam orally, SJW 1800 vs baseline",0.4437 (0.3735–0.5271)
same,CL/F,"[2]; 30 μg midazolam orally, baseline, GM (95% CI)",1649 (1290–2109) mL min^−1
same,further increase of midazolam CL orally,[2]; [7],3.06 fold
same,AUC(0-inf),"[2]; human, plasma, po, 30 ug",0.303 ng·h/mL
same,AUC(0-t),"[2]; human, plasma, po, 30 ug",0.258 ng·h/mL
same,Cmax,"[2]; human, plasma, po, 30 ug",0.139 ng/mL
same,Vd/F,"[2]; human, plasma, po, 30 ug",422 L
same,bioavailability,"[2]; human, plasma, po, 30 ug, 30 μg midazolam orally, SJW 1800 mg/day for 14 days, GM (95% CI)",15.6%
same,bioavailability,"[2]; human, plasma, po, 30 ug, 30 μg midazolam orally, baseline, GM (95% CI)",35.1%
same,further increase of midazolam CL i.v.,[3]; [7],1.43 fold
same,AUC(0-inf),"[3]; human, plasma, intravenous, 10 ug",0.287 ng·h/mL
same,AUC(0-inf),"[3]; human, plasma, iv, 10 ug",0.334 ng·h/mL
same,Vd,"[3]; human, plasma, iv, 10 ug",148 L
same,half-life,"[3]; human, plasma, iv, 10 ug",2.97 h
same,fold increase of midazolam clearance with a regular midazolam dose,[4],4.22
same,AUC,[5],0.0657 ng·h/mL
CO[C@H]1/C=C/O[C@@]2(C)Oc3c(C)c(O)c4c(O)c(c(/C=N/N5CCN(C)CC5)c(O)c4c3C2=O)NC(=O)/C(C)=C\C=C\[C@H](C)[C@H](O)[C@@H](C)[C@@H](O)[C@@H](C)[C@H](OC(C)=O)[C@@H]1C [rifampin],daily doses at which maximum induction is already reached,[6],300 to 600 mg
